Assays:
Ki67 gene expression = test: qPCR Ki67 gene expression in psoriatic tissue model; type: cell-based, human; settings: for Downregulation of Ki67 gene: 2× or 4× repeat applications
Excerpt: (§1) The psoriasis tissue model (SOR-300-FT; MatTek Corp., Ashland, Mass.) is a highly differentiated in vitro psoriatic tissue comprised of normal, human-derived keratinocytes and psoriatic fibroblasts which have been cultured to form a highly differentiated model of psoriatic tissue. Morphologically, the psoriatic tissue is of uniform thickness and is very similar to native psoriatic tissue in that it expresses increased levels of Ki67+ cells (hyperproliferation) and psoriasis-associated proteins such as psoriasin, elafin and human beta-defensin-2 (HBD-2) (Am. J. Pathol. 173:815-23, 2008). SOR-300-FT tissues (surface area=0.6 cm^2) were cultured on microporous membrane (pore size=0.4 μm) cell culture inserts. All psoriatic tissues were grown at the air liquid interface (ALI) in which the apical tissue layer is exposed to air. Use of the ALI induces the tissues to attain skin-like differentiation and allows direct topical application of test materials (similar to in vivo exposure).
(§2) Calcipotriol at 2.5, 0.25 and 0.025 μg/ml in medium was used as positive control. Ultrapure water was used as the vehicle control. The test article Compound C was applied to the basolateral (by additions to the culture medium) and apical (50 μl) side of the tissues. The effect of each three concentrations of the test article on tissue structure was examined using H&E stained histological slides. For gene analysis, RNA was isolated using standard RNA isolation protocol (MatTek Corporation). Isolated RNA was quantified and the integrity of the isolated RNA was checked. Quantitative RT-PCR was performed to determine expression levels of 5 psoriatic associated genes (elafin, HBD-2, psoriasin, p63, and Ki67).
SOR-300-FT™ tissues were transferred to 6-well plates containing 0.9 ml of pre-warmed assay medium and equilibrated to standard culture conditions (37° C., 5% CO2) for 1 hour. After the 1 hr equilibration, the tissues were re-fed with fresh medium as follow: 1) for the 24 hr time point, tissues were feed with 0.9 ml of medium and 2) for time points >24 hr, tissues were fed with 5 ml of culture medium by placing the cell culture inserts on top of the washers (Part # EPI-WSHR, MatTek Corporation). Next, 50 μl of the test article was applied topically to the psoriatic tissues (n=3) and the test article was added to the culture medium at concentrations of 100 μM, 30 μM, and 5 μM. At times 48 and 72 hours: a) the tissues were rinsed topically 3× with 300-400 μL of PBS, b) the inserts containing the tissues were held tightly with sterile forceps and the test article was rinsed gently by immersing the insert into PBS and decant medium from insert and c) fresh test article was re-applied to the tissue immediately after rinsing and decanting (50 μl, topically). Analysis was performed at t=48 hr (2× repeat applications) and t=96 hr (4× applications). […]
(§3) RNA Isolation: RNA was isolated from the tissues following MatTek's standardized RNA isolation protocol. The concentration, integrity, and purity of RNA was assessed using Experion System (Bio-Rad).
qPCR: cDNA was generated using the RT2 First Strand Kit (Qiagen, cat#330401). Relative gene expression was measured using RT2 SYBR Green qPCR Mastermix (Qiagen, cat#330502) and Qiagen RT2 primers. […]
(§4) qPCR was performed to quantify the relative gene expression levels of 5 psoriatic associated gene biomarkers: 1) human beta defensin 2 (HBD-2), 2) psoriasin, 3) elafin and 4) p63, and 5) Ki67.

[1] = tested on: human beta defensin 2 (HBD-2) gene expression; test: qPCR HBD-2 gene expression in psoriatic tissue model; type: cell-based
Excerpt: as §1, §2
(§5) SOR-300-FT™ tissues were transferred to 6-well plates containing 0.9 ml of pre-warmed assay medium and equilibrated to standard culture conditions (37° C., 5% CO2) for 1 hour. After the 1 hr equilibration, the tissues were re-fed with fresh medium as follow: 1) for the 24 hr time point, tissues were feed with 0.9 ml of medium and 2) for time points >24 hr, tissues were fed with 5 ml of culture medium by placing the cell culture inserts on top of the washers (Part # EPI-WSHR, MatTek Corporation). Next, 50 μl of the test article was applied topically to the psoriatic tissues (n=3) and the test article was added to the culture medium at concentrations of 100 μM, 30 μM, and 5 μM. At times 48 and 72 hours: a) the tissues were rinsed topically 3× with 300-400 μL of PBS, b) the inserts containing the tissues were held tightly with sterile forceps and the test article was rinsed gently by immersing the insert into PBS and decant medium from insert and c) fresh test article was re-applied to the tissue immediately after rinsing and decanting (50 μl, topically). Analysis was performed at t=48 hr (2× repeat applications) and t=96 hr (4× applications).
(§6) After t=48 (2× repeat exposure) and t=96 hr (4× exposure), N=3 tissues/treatment were used for RNA isolation for biomarker identification (gene expression levels). After the t=48 and t=96 hr, N=1 tissue/treatment was fixed in 10% formalin for histological analysis.
as §3
(§7) qPCR: cDNA was generated using the RT2 First Strand Kit (Qiagen, cat#330401). Relative gene expression was measured using RT2 SYBR Green qPCR Mastermix (Qiagen, cat#330502) and Qiagen RT2 primers. Analysis was carried out using Bio-Rad CFX software.
as §4

[2] = tested on: psoriasis tissue model (SOR-300-FT); test: Tissue structure (H&E histology) of psoriasis tissue model; type: cell-based, human
Excerpt: as §1, §2, §5, §6
Microscopic observations of histology samples were performed and effect of treatment on tissue morphology such as apical surface disruption, structural changes, and abnormal tissue staining was assessed.

p63 gene expression = test: qPCR p63 gene expression in psoriatic tissue model; type: cell-based, human; settings: for Downregulation of p63 gene: 2× or 4× repeat applications
Excerpt: as §1, §2, §5, §6, §3, §7, §4

[3] = tested on: psoriasin gene expression; test: qPCR psoriasin gene expression in psoriatic tissue model; type: cell-based, human
Excerpt: as §1, §2, §5, §6, §3, §7, §4

elafin gene expression = test: qPCR elafin gene expression in psoriatic tissue model; type: cell-based, human
Excerpt: as §1, §2, §5, §6, §3, §7, §4

[4] = 2.5 μg/ml, 2× repeat applications
[5] = 2.5 μg/ml, 4× repeat applications
[6] = 0.025 ug/ml, 2× repeat applications
[7] = 0.025 ug/ml, 4× repeat applications
[8] = 0.25 ug/ml, 2× application, 48 hr

Q: `C[C@H]1[C@H]2N(C(=O)CN(C)N2C(=O)NCc2ccccc2)[C@@H](Cc2ccc(O)cc2)C(=O)N1Cc1cccc2cccnc12` [Compound C, (6S,9S,9aS)—N-benzyl-6-(4-hydroxybenzyl)-2,9-dimethyl-4,7-dioxo-8-(quinolin-8-ylmethyl)octahydro-1H-pyrazino[2,1-c][1,2,4]triazine-1-carboxamide] was tested. Which “Downregulation of Ki67 gene” value (Ki67 gene expression; 5 μM) did it give?
A: The value was “did not show downregulation”.

Q: What about the “Downregulation of Ki67 gene” value (Ki67 gene expression; 30 μM) of the same molecule?
A: Its value is “did not show downregulation”.

Q: What about the “Downregulation of Ki 67 gene expression” value (Ki67 gene expression; 100 μM, 2× and 4× applications (FIGS. 4A-B)) of the same molecule?
A: Its value is “No down regulation”.

Q: What about the “Downregulation of HBD-2 gene expression” value ([1]; 5 μM, 4× applications, 96 hr) of the same molecule?
A: Its value is at least 2 fold.

Q: And the “Downregulation of HBD-2 gene expression” value ([1]; 30 μM, 4× applications, 96 hr)?
A: The value was at least 2 fold.

Q: What about the “Downregulation of HBD-2 gene expression” value ([1]; 100 μM, 4× applications, 96 hr) of the same molecule?
A: The value was at least 2 fold.

Q: What about the “Microscopic observation of tissue histology” value ([2]; 5 μM, 2× repeat exposures) of the same molecule?
A: The value was “minimal effect on tissue structure”.

Q: And the “Basal cells and tissue regeneration (histology)” value ([2]; 5 μM, 4× repeat exposures)?
A: The value was “the basal cells were intact and tissue regeneration was occurring”.

Q: What about the “Microscopic observation of tissue histology” value ([2]; 5 μM, 4× repeat exposures) of the same molecule?
A: Its value is “the parabasal-apical layer of the tissue was sloughed off”.

Q: And the “Microscopic observation of tissue histology” value ([2]; 30 μM, 2× repeat exposures, 48 hr)?
A: Its value is “minor structural damage”.

Q: What about the “Microscopic observation of tissue histology” value ([2]; 30 μM, 4× exposures, 96 hr) of the same molecule?
A: Its value is “the suprabasal and apical layer was sloughed off”.

Q: And the “Microscopic observation of tissue histology” value ([2]; 100 μM, 2× or 4× repeat exposures)?
A: The value was “structural damage to the differentiated cell layer”.

Q: And the “Downregulation of p63 gene” value (p63 gene expression; 5 μM)?
A: Its value is “did not show downregulation”.

Q: What about the “Downregulation of p63 gene” value (p63 gene expression; 30 μM) of the same molecule?
A: Its value is “did not show downregulation”.

Q: And the “Downregulation of the p63 gene” value (p63 gene expression; 100 μM, 2× repeat applications)?
A: The value was 1.6 fold.

Q: And the “Downregulation of psoriasin gene expression” value ([3]; 5 μM, 4× applications, 96 hr)?
A: The value was at least 2 fold.

Q: What about the “Downregulation of psoriasin gene expression” value ([3]; 30 μM, 4× applications, 96 hr) of the same molecule?
A: The value was at least 2 fold.

Q: What about the “Downregulation of psoriasin gene expression” value ([3]; 100 μM, 4× applications, 96 hr) of the same molecule?
A: Its value is at least 2 fold.

Q: What about the “Downregulation of elafin gene expression” value (elafin gene expression; 5 μM, 4× applications, 96 hr) of the same molecule?
A: The value was at least 2 fold.

Q: What about the “Downregulation of elafin gene expression” value (elafin gene expression; 30 μM, 4× applications, 96 hr) of the same molecule?
A: Its value is at least 2 fold.

Q: What about the “Reduction in elafin gene expression level” value (elafin gene expression; 30 μM, 48 hr (2× applications)) of the same molecule?
A: Its value is 2.2 fold.

Q: And the “Downregulation of elafin gene expression” value (elafin gene expression; 100 μM, 4× applications, 96 hr)?
A: Its value is at least 2 fold.

Q: What does the source list for `C=C1/C(=C\C=C2/CCC[C@]3(C)[C@@H]([C@H](C)/C=C/[C@@H](O)C4CC4)CC[C@@H]23)C[C@@H](O)C[C@@H]1O` [Calcipotriol, reference compound]?
A: Downregulation of Ki 67 gene expression (Ki67 gene expression; [4]): ≥ 2 fold; Decrease of Ki67 gene expression (Ki67 gene expression; [5]): 1.6 fold; Downregulation (≧2 fold) of HBD-2 gene expression [1, 6]: not after 2× repeat applications; Downregulation of HBD-2 gene expression [1, 7]: ≥ 2 fold; Downregulation of HBD2 gene expression [1, 8]: ≥ 2 fold; Downregulation of HBD-2 gene expression [1, 4]: ≥ 2 fold; Reduction of HBD-2 gene expression [1, 5]: significant reduction; Microscopic observation of tissue histology ([2]; 2.5, 0.25 and 0.025 μg/ml, 2× or 4× repeat exposures): minimal-to-no evidence of structural damage; Downregulation of p63 gene expression (p63 gene expression; [8]): ≥ 2 fold; Downregulation of p63 gene expression (p63 gene expression; [4]): ≥ 2 fold; Decrease of p63 gene expression (p63 gene expression; [5]): 1.7 fold; Downregulation (≧2 fold) of psoriasin gene expression [3, 6]: not after 2× repeat applications; Downregulation of psoriasin gene expression [3, 7]: ≥ 2 fold; Downregulation of psoriasin gene expression [3, 4]: ≥ 2 fold; Reduction of psoriasin gene expression [3, 5]: significant reduction; Downregulation (≧2 fold) of elafin gene expression (elafin gene expression; [6]): not after 2× repeat applications; Downregulation of elafin gene expression (elafin gene expression; [7]): ≥ 2 fold; Downregulation of elafin gene expression (elafin gene expression; [4]): ≥ 2 fold; Reduction of elafin gene expression (elafin gene expression; [5]): significant reduction
